# Source: ChEMBL document CHEMBL1201862, “PubChem BioAssay data set” (2004)
#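 Growth conditions: 96-well plates. Treatment: test compound, 48 hours, 5 concentrations. Analysis: linear interpolation between bracketing concentrations; unreached endpoints set to highest concentration. GI50 marks 50% less growth.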 The source made the active and inactive calls. Rule as the data show it: active = GI50 up to about 1.1 µM and inactive = higher.
# Legend:
# Experiment in all cases: DTP human tumour cell line panel, 48 h
# [1] = test system: OVCAR-4
# [2] = test system: 786-0
# [3] = test system: SF-539
# [4] = test system: IGROV-1
# [5] = test system: Hs-578T
# [6] = test system: CAKI-1
# [7] = test system: KM12
# [8] = test system: RXF 393
# [9] = test system: MDA-MB-435
# [10] = test system: OVCAR-5
# [11] = test system: SNB-19
# [12] = test system: SK-MEL-28
# [13] = test system: DU-145
# [14] = test system: T47D
# [15] = test system: SK-OV-3
# [16] = test system: HOP-92
# [17] = test system: OVCAR-8
# [18] = test system: RPMI-8226
# [19] = test system: ACHN
# [20] = test system: SR
SMILES,GI50 [1],GI50 [2],GI50 [3],GI50 [4],GI50 [5],GI50 [6],GI50 [7],GI50 [8],GI50 [9],GI50 [10],GI50 [11],GI50 [12],GI50 [13],GI50 [14],GI50 [15],GI50 [16],GI50 [17],GI50 [18],GI50 [19],GI50 [20]
OC1OC(c2ccc[nH]2)C(F)(F)C(F)(F)C1(F)F (centres undefined),73.1 µM (inactive),> 100 µM (inactive),> 100 µM (inactive),> 100 µM (inactive),> 100 µM (inactive),87.3 µM (inactive),> 100 µM (inactive),> 100 µM (inactive),> 100 µM (inactive),> 100 µM (inactive),> 100 µM (inactive),> 100 µM (inactive),> 100 µM (inactive),> 100 µM (inactive),> 100 µM (inactive),68.4 µM (inactive),> 100 µM (inactive),> 100 µM (inactive),> 100 µM (inactive),
COc1ccc(-c2c3c(n(C4OC(COC(C)=O)C(OC(C)=O)C(OC(C)=O)C4OC(C)=O)c(=S)c2C#N)CCC3)cc1 (centres undefined),> 100 µM (inactive),> 100 µM (inactive),> 100 µM (inactive),> 100 µM (inactive),> 100 µM (inactive),> 100 µM (inactive),> 100 µM (inactive),92.3 µM (inactive),> 100 µM (inactive),> 100 µM (inactive),> 100 µM (inactive),> 100 µM (inactive),> 100 µM (inactive),,> 100 µM (inactive),6.82 µM (inactive),,> 100 µM (inactive),> 100 µM (inactive),> 100 µM (inactive)
COc1c2cc([N+](=O)[O-])cc1CNC(=O)CN1CCOCCOCCN(CCOCCOCC1)CC(=O)NC2,> 100 µM (inactive),> 100 µM (inactive),,> 100 µM (inactive),> 100 µM (inactive),> 100 µM (inactive),> 100 µM (inactive),> 100 µM (inactive),> 100 µM (inactive),> 100 µM (inactive),> 100 µM (inactive),> 100 µM (inactive),> 100 µM (inactive),> 100 µM (inactive),> 100 µM (inactive),> 100 µM (inactive),> 100 µM (inactive),56.4 µM (inactive),> 100 µM (inactive),
CC(C)CCC[C@@H](C)[C@H]1CC[C@H]2[C@@H]3CC[C@H]4C[C@H](N)CC[C@]4(C)[C@H]3CC[C@]12C,21.9 µM (inactive),20.4 µM (inactive),,11.3 µM (inactive),20 µM (inactive),16.4 µM (inactive),23.6 µM (inactive),22.2 µM (inactive),27.1 µM (inactive),15.4 µM (inactive),15.6 µM (inactive),28.3 µM (inactive),16.4 µM (inactive),34.4 µM (inactive),22.6 µM (inactive),11.7 µM (inactive),24.4 µM (inactive),20.7 µM (inactive),17.5 µM (inactive),
CC1=Nc2c(C#N)ncn2N=C(C)C1,> 100 µM (inactive),> 100 µM (inactive),> 100 µM (inactive),> 100 µM (inactive),> 100 µM (inactive),> 100 µM (inactive),> 100 µM (inactive),> 100 µM (inactive),> 100 µM (inactive),> 100 µM (inactive),,> 100 µM (inactive),> 100 µM (inactive),,49 µM (inactive),> 100 µM (inactive),,> 100 µM (inactive),> 100 µM (inactive),> 100 µM (inactive)
Cc1ccc(/N=C2\SC(=S)N(CCC[N+](C)(C)C)\C2=N/c2ccc(C)cc2)cc1,,14.1 µM (inactive),,10.1 µM (inactive),4.08 µM (inactive),,24.4 µM (inactive),2.49 µM (inactive),,14.5 µM (inactive),8.24 µM (inactive),7.64 µM (inactive),,2.29 µM (inactive),,14.2 µM (inactive),15.4 µM (inactive),6.01 µM (inactive),13.2 µM (inactive),7.03 µM (inactive)
C1CNOCCCONCCCNOCCCONC1,70.3 µM (inactive),> 100 µM (inactive),,56.1 µM (inactive),59.3 µM (inactive),> 100 µM (inactive),> 100 µM (inactive),20.2 µM (inactive),> 100 µM (inactive),> 100 µM (inactive),57.3 µM (inactive),> 100 µM (inactive),58.9 µM (inactive),11.3 µM (inactive),37.1 µM (inactive),26.1 µM (inactive),60.7 µM (inactive),,> 100 µM (inactive),
S=C(N/N=C\C(=N/NC(=S)N1CCCCC1)c1ccccc1)N1CCCCC1,1.76 µM (inactive),1.85 µM (inactive),2.36 µM (inactive),1.76 µM (inactive),1.82 µM (inactive),2.15 µM (inactive),2.03 µM (inactive),1.85 µM (inactive),1.91 µM (inactive),1.88 µM (inactive),1.9 µM (inactive),1.9 µM (inactive),1.57 µM (inactive),5.4 µM (inactive),1.91 µM (inactive),2.38 µM (inactive),,46.1 µM (inactive),1.69 µM (inactive),
CC1=C(C)C(=O)OC(C(C)(O)C2(O)CC3OC34C3CC(O)C56OC5C=CC(=O)C6(C)C3CCC42C)C1 (centres undefined),4.71 µM (inactive),1.51 µM (inactive),2 µM (inactive),1.72 µM (inactive),1.77 µM (inactive),2.5 µM (inactive),2.16 µM (inactive),2.4 µM (inactive),1.15 µM (inactive),2.39 µM (inactive),4.12 µM (inactive),1.41 µM (inactive),3.4 µM (inactive),2.99 µM (inactive),3.9 µM (inactive),1.82 µM (inactive),1.85 µM (inactive),1.24 µM (inactive),0.845 µM (active),
COc1ccc2c(c1OC)C(C(Cl)(Cl)Cl)N1CCc3cc4c(cc3C1=C2)OCO4 (centres undefined),5.93 µM (inactive),15.2 µM (inactive),35 µM (inactive),25.5 µM (inactive),18.4 µM (inactive),40.8 µM (inactive),7.6 µM (inactive),,11.1 µM (inactive),72.6 µM (inactive),5.82 µM (inactive),12 µM (inactive),16.3 µM (inactive),10.8 µM (inactive),23.9 µM (inactive),23.9 µM (inactive),8.11 µM (inactive),2.08 µM (inactive),22.9 µM (inactive),
C=C[C@H]1CN2CC[C@H]1C[C@@H]2[C@@H](O)c1ccnc2ccccc12 [CINCHONINE],58.6 µM (inactive),> 100 µM (inactive),> 100 µM (inactive),19.6 µM (inactive),1.26 µM (inactive),> 100 µM (inactive),> 100 µM (inactive),> 100 µM (inactive),> 100 µM (inactive),> 100 µM (inactive),> 100 µM (inactive),> 100 µM (inactive),> 100 µM (inactive),> 100 µM (inactive),> 100 µM (inactive),,> 100 µM (inactive),22.9 µM (inactive),> 100 µM (inactive),
